How the values were obtained:
[1] = Highest frequency of moderate liver toxicity observed during clinical trials, expressed as a percentage. [column '% BIOL' in source]; details: human
[2] = Highest frequency of acute liver toxicity observed during clinical trials, expressed as a percentage. [column '% AIGUE' in source]; details: human
[3] = Presence of at least one case with successful reintroduction. [column 'REINT' in source]; details: human
[4] = Proposed mechanism(s) of liver damage. [column 'MEC' in source]; details: human
[5] = human, serum
[6] = human, serum; remark: listed apart in the source
[7] = human
[8] = human; remark: listed apart in the source
[9] = human; remark: listed apart in the source
[10] = human, serum, 4383 h
[11] = human; remark: listed apart in the source
[12] = human; remark: listed apart in the source
[13] = human; remark: listed apart in the source
[14] = human; remark: listed apart in the source
[15] = human; remark: listed apart in the source
[16] = human; remark: listed apart in the source
[17] = Times to onset, minimal and maximal, observed in the indexed observations. [column 'DELAI' in source]; details: human
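For Hepatotoxicity (association with vascular disease) in this document: count of indexed literature references reporting vascular liver injury in humans, e.g. peliosis hepatitis, hepatic veno-occlusive disease or Budd-Chiari syndrome.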
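For Hepatotoxicity (benign tumour) in this document: value is a count of indexed literature references citing a benign tumour confirmed by histopathology.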
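For Hepatotoxicity (choleostasis) in this document: human cholestatic liver injury, shown by histopathology or by peak ALT or AST elevation over alkaline phosphatase ratio below 2, value counts indexed literature reports.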
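For Hepatotoxicity (chronic liver disease) in this document: chronic liver injury confirmed by histopathology or persistently raised serum aminotransferase activity beyond 6 months, value given as the count of indexed literature references.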
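For Hepatotoxicity (cirrhosis) in this document: value is a count of indexed literature references reporting cirrhosis confirmed by histopathology.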
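For Hepatotoxicity (cytolytic) in this document: human cytolytic liver injury, shown by histopathology or by a ratio above 5 of peak ALT or AST elevation to alkaline phosphatase elevation, value counts indexed references.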
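For Hepatotoxicity (granulomatous hepatitis) in this document: value is a count of indexed literature references reporting granulomatous liver disease confirmed by histopathology.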
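For Hepatotoxicity (malignant tumour) in this document: malignant tumour confirmed by histopathology, value gives the count of indexed literature references reporting it.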
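For Hepatotoxicity (severe hepatitis) in this document: human clinical data: severe hepatitis, meaning potentially life-threatening liver failure or clinically observed cases, the value counts how many indexed literature references report it.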
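For Hepatotoxicity (steatosis) in this document: steatosis confirmed by histopathology, value is the count of indexed references.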

Row | Compound | Hepatotoxicity (moderate) [1] | Hepatotoxicity (acute) [2] | Hepatotoxicity (successful reintroduction) [3] | Hepatotoxicity (moderate) [5] | Hepatotoxicity (acute) [6] | Hepatotoxicity (cytolytic) [7] | Hepatotoxicity (choleostasis) [8] | Hepatotoxicity (severe hepatitis) [9] | Hepatotoxicity (chronic liver disease) [10] | Hepatotoxicity (cirrhosis) [11] | Hepatotoxicity (granulomatous hepatitis) [12] | Hepatotoxicity (association with vascular disease) [13] | Hepatotoxicity (steatosis) [14] | Hepatotoxicity (malignant tumour) [15] | Hepatotoxicity (benign tumour) [16] | Hepatotoxicity (time to onset) [17] | further results
1 | CC[C@@]1(O)C[C@H](O[C@H]2C[C@H](N(C)C)[C@H](O[C@H]3C[C@H](O)[C@H](O[C@H]4CCC(=O)[C@H](C)O4)[C@H](C)O3)[C@H](C)O2)c2c(cc3c(c2O)C(=O)c2c(O)cccc2C3=O)[C@H]1C(=O)OC [ACLARUBICIN] | 26.7% | 0% | yes | 8 | 0 | 0 | 0 | 1 | 0 | 0 | 0 | 0 | 0 | 0 | 0 | – | Hepatotoxicity (mechanism) [4]: Dose-dependant
2 | COC(=O)C1=C(C)NC(C)=C(C(=O)OC)C1c1ccccc1[N+](=O)[O-] [NIFEDIPINE] | 12% | 4% | yes | 6 | – | 5 | 7 | 2 | 0 | 0 | 0 | – | 3 | 0 | 0 | 2 days - 6 years | Hepatotoxicity (mechanism) [4]: Allergic
3 | CC(=O)S[C@@H]1CC2=CC(=O)CC[C@]2(C)[C@H]2CC[C@@]3(C)[C@@H](CC[C@@]34CCC(=O)O4)[C@H]12 [SPIRONOLACTONE] | 0% | 0% | yes | 0 | 3 | 3 | 3 | 0 | 0 | 0 | 0 | 0 | 0 | 0 | 0 | 6 weeks - 2 months | –
4 | O=c1[nH]c(=O)n(C2CCCO2)cc1F (configuration not stated) [TEGAFUR] | 17.5% | 0% | yes | 2 | 3 | 1 | 0 | 3 | 2 | 1 | 0 | 0 | 0 | 0 | 0 | 1.5 months - 9 months | –
5 | O=c1cc[nH]c(=S)[nH]1 [THIOURACIL] | 0% | 5.9% | yes | 0 | 5 | 1 | 1 | 1 | 0 | 0 | 0 | 0 | 0 | 0 | 0 | 1 day - 3 weeks | –
6 | Clc1ccc2nsnc2c1NC1=NCCN1 [TIZANIDINE] | – | – | yes | 2 | – | – | – | – | 0 | 0 | – | 0 | 1 | 0 | 0 | 6 days - 3.5 months | Hepatotoxicity (moderate) ([1]; Liver): 0%; Hepatotoxicity (mechanism) ([4]; Liver): Allergic; Hepatotoxicity (cytolytic) ([7]; Liver): 1; Hepatotoxicity (choleostasis) ([8]; Liver): 0; Hepatotoxicity (severe hepatitis) ([9]; Liver): 2; Hepatotoxicity (granulomatous hepatitis) ([12]; Liver): 0
7 | Cc1c(Cl)cccc1Nc1ccccc1C(=O)O [TOLFENAMIC ACID] | 0% | 0% | yes | 0 | 2 | 1 | 0 | 0 | 0 | 0 | 0 | 0 | 0 | 0 | 0 | 6 months | –
8 | COc1cc(C(=O)NS(=O)(=O)c2ccccc2C)ccc1Cc1cn(C)c2ccc(NC(=O)OC3CCCC3)cc12 [ZAFIRLUKAST] | 4.1% | 0.5% | yes | 4 | 8 | 8 | 0 | 3 | 0 | 0 | 0 | 0 | 0 | 0 | 0 | 2 months - 1 year | –
9 | CN(C)C/C=C(/c1ccc(Br)cc1)c1cccnc1 [ZIMELDINE] | 20.5% | 6.6% | yes | 9 | 4 | 3 | 3 | 0 | 0 | 0 | 2 | 0 | 0 | 0 | 0 | 2 weeks - 2 months | –
10 | ENOXAPARIN | 36% | 0% | yes | 8 | 0 | 0 | 0 | 0 | 0 | 0 | 0 | 0 | 0 | 0 | 0 | 12 hours - 2 weeks | –
11 | FILGRASTIM | 75% | 0% | yes | 7 | 2 | 2 | 1 | 0 | 0 | 0 | 0 | 0 | 0 | 0 | 0 | 3 days - 8 days | –
12 | INSULIN HUMAN | 0% | 0% | yes | 5 | 1 | 1 | 0 | 0 | 0 | 0 | 0 | 0 | 0 | 0 | 0 | 6 days - 1 month | –
13 | PEGVISOMANT | 0% | 1.3% | yes | 0 | 2 | 2 | 0 | 0 | 0 | 0 | 0 | 0 | 0 | 0 | 0 | 4 weeks - 8 weeks | –
14 | PENTOSAN POLYSULFATE SODIUM | 75% | 0% | yes | 5 | 1 | 1 | 0 | 0 | 0 | 0 | 0 | 0 | 0 | 0 | 0 | 1 week - 2 weeks | –

Reference: ChEMBL document CHEMBL3137667, “[Drug-induced liver injury; fourteenth updated edition of the bibliographic database of liver injuries and related drugs]” (Gastroenterol Clin Biol, 2004)
